# Measured values published in patent publication US10961231B2, “NTCP inhibitors” (National Institute of Biological Sciences, Beijing, priority 2018, dated 2021).
# Molecular target: T1, NTCP (Homo sapiens, UniProt Q14973)
# T1 sequence (Q14973 1-349): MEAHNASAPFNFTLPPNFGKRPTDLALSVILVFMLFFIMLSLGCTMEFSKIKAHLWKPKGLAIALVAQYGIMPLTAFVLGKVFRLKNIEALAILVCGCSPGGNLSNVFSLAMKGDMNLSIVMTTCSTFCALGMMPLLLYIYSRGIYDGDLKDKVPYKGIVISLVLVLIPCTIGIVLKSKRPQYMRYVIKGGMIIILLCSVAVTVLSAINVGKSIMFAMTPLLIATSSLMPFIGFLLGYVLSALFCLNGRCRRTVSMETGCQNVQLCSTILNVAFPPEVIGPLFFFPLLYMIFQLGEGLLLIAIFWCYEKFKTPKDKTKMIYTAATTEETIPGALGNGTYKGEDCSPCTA
# Test: [3H]-TCA uptake assay (NTCP inhibition)
# Type: cell-based
# Conditions: IC50, given as a range, marked * (asterisk not explained)
# Experimental: [^3H]-TCA uptake assay. PTH and HepG2-NTCP cells were cultured in PMM for 24 hours to induce NTCP expression. After treated by DMSO or test compounds for 2 hours, the cells were then incubated with 1 μM [^3H]-taurocholate acid dissolved in Na^+ Ringer's buffer (the concentration of Na was 145 mM) for 15 minutes at 37° C. Subsequently, the cells were washed once in phosphate-buffered saline (PBS) and lysed in 50 μL 1% TritonX-100 in H2O for 5 minutes at room temperature. The lysate were totally transferred into a liquid scintillation 96 well plate and mixed with 200 μL liquid scintillation cocktail (Ultima Gold XR, PerkinElmer). Liquid scintillation counting was performed on a PerkinElmer 1450 LSC liquid scintillation counter.
row,SMILES,IC50
1,CCC1NC(=O)C(C2OC(Oc3ccc(N4CCOCC4)cc3)CC2C)N(C)C(=O)C(C(C)C)N(C)C(=O)C(CC(C)C)N(C)C(=O)C(CC(C)C)N(C)C(=O)C(C)NC(=O)C(C)NC(=O)C(CC(C)C)N(C)C(=O)C(C(C)C)NC(=O)C(CC(C)C)N(C)C(=O)CN(C)C1=O (stereo not drawn) [Compound 3A-o],1000 to 100000 nM
2,CCC1NC(=O)C(C2OC(Oc3ccc(NC(C)=O)cc3)CC2C)N(C)C(=O)C(C(C)C)N(C)C(=O)C(CC(C)C)N(C)C(=O)C(CC(C)C)N(C)C(=O)C(C)NC(=O)C(C)NC(=O)C(CC(C)C)N(C)C(=O)C(C(C)C)NC(=O)C(CC(C)C)N(C)C(=O)CN(C)C1=O (stereo not drawn) [Compound 4A-o],1000 to 100000 nM
3,CCC1NC(=O)C(C2OC(Oc3ccc(OS(C)(=O)=O)cc3)CC2C)N(C)C(=O)C(C(C)C)N(C)C(=O)C(CC(C)C)N(C)C(=O)C(CC(C)C)N(C)C(=O)C(C)NC(=O)C(C)NC(=O)C(CC(C)C)N(C)C(=O)C(C(C)C)NC(=O)C(CC(C)C)N(C)C(=O)CN(C)C1=O (stereo not drawn) [Compound 5A-o],1000 to 100000 nM
4,CCC1NC(=O)C(C2OC(Oc3ccc(N4CCN(C)CC4)cc3)CC2C)N(C)C(=O)C(C(C)C)N(C)C(=O)C(CC(C)C)N(C)C(=O)C(CC(C)C)N(C)C(=O)C(C)NC(=O)C(C)NC(=O)C(CC(C)C)N(C)C(=O)C(C(C)C)NC(=O)C(CC(C)C)N(C)C(=O)CN(C)C1=O (stereo not drawn) [Compound 6A-o],1000 to 100000 nM
5,CCC1NC(=O)C(C2OC(Oc3ccc(CN4CCN(C)CC4)cc3)CC2C)N(C)C(=O)C(C(C)C)N(C)C(=O)C(CC(C)C)N(C)C(=O)C(CC(C)C)N(C)C(=O)C(C)NC(=O)C(C)NC(=O)C(CC(C)C)N(C)C(=O)C(C(C)C)NC(=O)C(CC(C)C)N(C)C(=O)CN(C)C1=O (stereo not drawn) [Compound 7A-o],1000 to 100000 nM
6,CCCCc1ccc(OC2CC(C)C(C3C(=O)NC(CC)C(=O)N(C)CC(=O)N(C)C(CC(C)C)C(=O)NC(C(C)C)C(=O)N(C)C(CC(C)C)C(=O)NC(C)C(=O)NC(C)C(=O)N(C)C(CC(C)C)C(=O)N(C)C(CC(C)C)C(=O)N(C)C(C(C)C)C(=O)N3C)O2)cc1 (stereo not drawn) [Compound 8A-o],1000 to 100000 nM
7,CCC1NC(=O)C(C2OC(Oc3ccc(C4CCCCC4)cc3)CC2C)N(C)C(=O)C(C(C)C)N(C)C(=O)C(CC(C)C)N(C)C(=O)C(CC(C)C)N(C)C(=O)C(C)NC(=O)C(C)NC(=O)C(CC(C)C)N(C)C(=O)C(C(C)C)NC(=O)C(CC(C)C)N(C)C(=O)CN(C)C1=O (stereo not drawn) [Compound 9A-o],1000 to 100000 nM
8,CCC1NC(=O)C(C2OC(Oc3ccc(SCCCS(=O)(=O)O)cc3)CC2C)N(C)C(=O)C(C(C)C)N(C)C(=O)C(CC(C)C)N(C)C(=O)C(CC(C)C)N(C)C(=O)C(C)NC(=O)C(C)NC(=O)C(CC(C)C)N(C)C(=O)C(C(C)C)NC(=O)C(CC(C)C)N(C)C(=O)CN(C)C1=O (stereo not drawn) [Compound 10A-o],1000 to 100000 nM

# Same assay, conditions: IC50, given as a range; assay not given
row,SMILES,IC50
1,"CCC1NC(=O)C(C2OC(Sc3ccc(NC(C)=O)cc3)CC2C)N(C)C(=O)C(C(C)C)N(C)C(=O)C(CC(C)C)N(C)C(=O)C(CC(C)C)N(C)C(=O)C(C)NC(=O)C(C)NC(=O)C(CC(C)C)N(C)C(=O)C(C(C)C)NC(=O)C(CC(C)C)N(C)C(=O)CN(C)C1=O [Compound 4A, [2-((2R,3R)-5-(4-acetamidophenylthio)-3-methyltetrahydrofuran-2-yl)-2-(methylamino)acetic acid]^1-cyclosporin A]",1000 to 10000 nM
2,"CCC1NC(=O)C(C2OC(Sc3ccc(OS(C)(=O)=O)cc3)CC2C)N(C)C(=O)C(C(C)C)N(C)C(=O)C(CC(C)C)N(C)C(=O)C(CC(C)C)N(C)C(=O)C(C)NC(=O)C(C)NC(=O)C(CC(C)C)N(C)C(=O)C(C(C)C)NC(=O)C(CC(C)C)N(C)C(=O)CN(C)C1=O [Compound 5A, [2-((2R,3R)-3-methyl-5-(4-(methylsulfonyloxy)phenylthio)tetrahydrofuran-2-yl)-2-(methylamino)acetic acid]^1-cyclosporin A]",1000 to 10000 nM
3,"CCC1NC(=O)C(C2OC(Sc3ccc(CN4CCN(C)CC4)cc3)CC2C)N(C)C(=O)C(C(C)C)N(C)C(=O)C(CC(C)C)N(C)C(=O)C(CC(C)C)N(C)C(=O)C(C)NC(=O)C(C)NC(=O)C(CC(C)C)N(C)C(=O)C(C(C)C)NC(=O)C(CC(C)C)N(C)C(=O)CN(C)C1=O [Compound 7A, [2-((2R,3R)-3-methyl-5-(4-((4-methylpiperazin-1-yl)methyl)phenylthio)tetrahydrofuran-2-yl)-2-(methylamino)acetic acid]^1-cyclosporin A]",1000 to 10000 nM

# Same assay, conditions: given as a range, marked * (asterisk not explained)
row,SMILES,IC50
1,CCC1NC(=O)C(C2OC(Oc3cc(OCCOC)cc(OCc4ccccc4)c3)CC2C)N(C)C(=O)C(C(C)C)N(C)C(=O)C(CC(C)C)N(C)C(=O)C(CC(C)C)N(C)C(=O)C(C)NC(=O)C(C)NC(=O)C(CC(C)C)N(C)C(=O)C(C(C)C)NC(=O)C(CC(C)C)N(C)C(=O)CN(C)C1=O (stereo not drawn) [Compound 11-0],1000 to 100000 nM
2,CCC1NC(=O)C(C2OC(Sc3cc(OCCOC)cc(OCc4ccccc4)c3)CC2C)N(C)C(=O)C(C(C)C)N(C)C(=O)C(CC(C)C)N(C)C(=O)C(CC(C)C)N(C)C(=O)C(C)NC(=O)C(C)NC(=O)C(CC(C)C)N(C)C(=O)C(C(C)C)NC(=O)C(CC(C)C)N(C)C(=O)CN(C)C1=O (stereo not drawn) [Compound 11],1000 to 100000 nM
3,CCC1NC(=O)C(C2OC(Oc3cccc(OCc4ccc(CN(C)C)cc4)c3)CC2C)N(C)C(=O)C(C(C)C)N(C)C(=O)C(CC(C)C)N(C)C(=O)C(CC(C)C)N(C)C(=O)C(C)NC(=O)C(C)NC(=O)C(CC(C)C)N(C)C(=O)C(C(C)C)NC(=O)C(CC(C)C)N(C)C(=O)CN(C)C1=O (stereo not drawn) [Compound 13A-o],1000 to 100000 nM

# Same assay, conditions: given as a range; assay not given
row,SMILES,IC50
1,"CCC1NC(=O)C(C2OC(Sc3ccc(N4CCOCC4)cc3)CC2C)N(C)C(=O)C(C(C)C)N(C)C(=O)C(CC(C)C)N(C)C(=O)C(CC(C)C)N(C)C(=O)C(C)NC(=O)C(C)NC(=O)C(CC(C)C)N(C)C(=O)C(C(C)C)NC(=O)C(CC(C)C)N(C)C(=O)CN(C)C1=O [Compound 3A, [2-((2R,3R)-3-methyl-5-(4-morpholinophenylthio)tetrahydrofuran-2-yl)-2-(methylamino)acetic acid]^1-cyclosporin A]",1 to 1000 nM
2,"CCC1NC(=O)C(C2OC(Sc3ccc(N4CCN(C)CC4)cc3)CC2C)N(C)C(=O)C(C(C)C)N(C)C(=O)C(CC(C)C)N(C)C(=O)C(CC(C)C)N(C)C(=O)C(C)NC(=O)C(C)NC(=O)C(CC(C)C)N(C)C(=O)C(C(C)C)NC(=O)C(CC(C)C)N(C)C(=O)CN(C)C1=O [Compound 6A, [2-((2R,3R)-3-methyl-5-(4-(4-methylpiperazin-1-yl)phenylthio)tetrahydrofuran-2-yl)-2-(methylamino)acetic acid]^1-cyclosporin A]",1 to 1000 nM
3,"CCCCc1ccc(SC2CC(C)C(C3C(=O)NC(CC)C(=O)N(C)CC(=O)N(C)C(CC(C)C)C(=O)NC(C(C)C)C(=O)N(C)C(CC(C)C)C(=O)NC(C)C(=O)NC(C)C(=O)N(C)C(CC(C)C)C(=O)N(C)C(CC(C)C)C(=O)N(C)C(C(C)C)C(=O)N3C)O2)cc1 [Compound 8A, [2-((2R,3R)-5-(4-butylphenylthio)-3-methyltetrahydrofuran-2-yl)-2-(methylamino)acetic acid]^1-cyclosporin A]",1 to 1000 nM
4,"CCC1NC(=O)C(C2OC(Sc3ccc(C4CCCCC4)cc3)CC2C)N(C)C(=O)C(C(C)C)N(C)C(=O)C(CC(C)C)N(C)C(=O)C(CC(C)C)N(C)C(=O)C(C)NC(=O)C(C)NC(=O)C(CC(C)C)N(C)C(=O)C(C(C)C)NC(=O)C(CC(C)C)N(C)C(=O)CN(C)C1=O [Compound 9A, [2-((2R,3R)-5-(4-cyclohexylphenylthio)-3-methyltetrahydrofuran-2-yl)-2-(methylamino)acetic acid]^1-cyclosporin A]",1000 to 1e+06 nM
5,"CCC1NC(=O)C(C2OC(Sc3ccc(SCCCS(=O)(=O)O)cc3)CC2C)N(C)C(=O)C(C(C)C)N(C)C(=O)C(CC(C)C)N(C)C(=O)C(CC(C)C)N(C)C(=O)C(C)NC(=O)C(C)NC(=O)C(CC(C)C)N(C)C(=O)C(C(C)C)NC(=O)C(CC(C)C)N(C)C(=O)CN(C)C1=O [Compound 10A, [2-((2R,3R)-3-methyl-5-(4-(3-sulfopropylthio)phenylthio)tetrahydrofuran-2-yl)-2-(methylamino)acetic acid]^1-cyclosporin A]",1000 to 1e+06 nM
6,"CCC1NC(=O)C(C2OC(Sc3cccc(OCc4ccccc4)c3)CC2C)N(C)C(=O)C(C(C)C)N(C)C(=O)C(CC(C)C)N(C)C(=O)C(CC(C)C)N(C)C(=O)C(C)NC(=O)C(C)NC(=O)C(CC(C)C)N(C)C(=O)C(C(C)C)NC(=O)C(CC(C)C)N(C)C(=O)CN(C)C1=O [Compound 12A, [2-((2R,3R)-5-(3-(benzyloxy)phenylthio)-3-methyltetrahydrofuran-2-yl)-2-(methylamino)acetic acid]^1-cyclosporin A]",1 to 1000 nM
7,"CCC1NC(=O)C(C2OC(Sc3cccc(OCc4ccc(CN(C)C)cc4)c3)CC2C)N(C)C(=O)C(C(C)C)N(C)C(=O)C(CC(C)C)N(C)C(=O)C(CC(C)C)N(C)C(=O)C(C)NC(=O)C(C)NC(=O)C(CC(C)C)N(C)C(=O)C(C(C)C)NC(=O)C(CC(C)C)N(C)C(=O)CN(C)C1=O [Compound 13A, [2-((2R,3R)-5-(3-(4-((dimethylamino)methyl)benzyloxy)phenylthio)-3-methyltetrahydrofuran-2-yl)-2-(methylamino)acetic acid]^1-cyclosporin A]",1 to 1000 nM
